US12391737B2, “Soluble NPY2 receptor agonists” (Boehringer Ingelheim International GmbH, priority 2020, dated 2025)

Tests used:
[1] = target: T1, Human Neuropeptide Y2 Receptor (Homo sapiens, UniProt P49146); test: Radioligand binding competition assay (RLB); conditions: Table 3, 125I-PYY(1-36) competition; read-out: Ki
T1 construct: purchased CHEMICON HTS066M
T1 sequence (P49146 1-381): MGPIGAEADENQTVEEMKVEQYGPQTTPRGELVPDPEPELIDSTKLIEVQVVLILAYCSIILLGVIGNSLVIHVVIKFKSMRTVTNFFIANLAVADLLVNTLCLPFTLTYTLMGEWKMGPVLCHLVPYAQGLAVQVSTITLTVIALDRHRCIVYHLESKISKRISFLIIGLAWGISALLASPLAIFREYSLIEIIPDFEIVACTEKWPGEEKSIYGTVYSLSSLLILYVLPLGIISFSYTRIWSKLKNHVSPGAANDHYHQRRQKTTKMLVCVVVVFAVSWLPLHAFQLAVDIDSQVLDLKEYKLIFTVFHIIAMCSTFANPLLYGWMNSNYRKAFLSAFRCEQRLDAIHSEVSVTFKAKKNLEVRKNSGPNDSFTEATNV
Method: The filtration RLB assay was carried out in 96-well plates in a final volume of 100 μl per well. Freeze-dried test peptides were dissolved in 100% dimethyl sulfoxide (DMSO) to stock solutions of 1 mM and serial dilutions were performed in assay buffer (50 mM HEPES, 5 mM MgCl2, 1 mM CaCl2, pH 7.4) containing 0.2% ovalbumin. […] Next, 80 μL membranes (HTS066M, ChemiSCREEN™ Human Neuropeptide Y2 Receptor Membrane Preparation, CHEMICON) were added to each well to give a final protein concentration of 0.5 μg/well. The plates were sealed and incubated at room temperature for 2 hours in a plate shaker set at 400 rpm. The incubation was stopped by vacuum filtration onto 0.5% polyethylene amine (PE) presoaked GF/C filters using a 96-well FilterMate™ harvester (Perkin Elmer) followed by four washes with 300 μl/well ice-cold wash buffer (50 mM HEPES, 500 mM NaCl, pH7.4). Filter plates were then dried for 60 min at room temperature and the bottom of the plates was sealed with backing tape UniFilter-96. Finally, 50 μl/well scintillation counter cocktail (Microscint20, Packard) was added and the radioactivity was counted in the Packard TopCount NXT scintillation counter. IC50 values (the half maximal inhibitory concentration of the agonist) were calculated by nonlinear regression analysis of sigmoidal dose-response curves.

Solubility determination = conditions: for Sol6: pH 6; for Sol7: pH 7
Method: Peptides (as TFA salts) were weighed out in a filter unit (Mini-UniPrep Syringeless Filter 0.45 μm, Whatman), and 0.1 M sodium diphosphate buffer at pH 6.4 or 7.0 was added to achieve 10 mg/ml final concentration. The peptide was dissolved by shaking the filter unit horizontally at 600 rpm for 2 hours at room temperature. The sample was filtered, to remove any insoluble particles and diluted to 1 mg/ml in 50% acetonitrile. The control was prepared by weighing out the corresponding peptide and dissolving it in 50% acetonitrile to final concentration of 1 mg/ml. Both the control and sample were analysed with reversed phase chromatography. The area under the peak of the sample was compared to the control and the solubility was calculated based on that ratio.
The pH was measured and recorded for each sample.
System: UltiMate 3000 UPLC, ThermoFisher
Mobile phase A: 5% acetonitrile, 95% water, 0.03% trifluoracetic acid.
Mobile phase B: 95% acetonitrile, 5% water, 0.03% trifluoracetic acid.
Gradient: 0-100% mobile phase B (2 mins.)
Column temperature: 50° C.

| Compound | Ki [1] | Sol6 (Solubility determination) | Sol7 (Solubility determination) |
| --- | --- | --- | --- |
| CC[C@H](C)[C@H](NC(=O)[C@H](Cc1ccc(O)cc1)NC(=O)[C@H](Cc1ccc(O)cc1)NC(=O)[C@H](CCCNC(=N)N)NC(=O)[C@H](CCC(N)=O)NC(=O)[C@H](CC(C)C)NC(=O)[C@H](CCC(=O)O)NC(=O)[C@H](CCC(=O)O)NC(=O)[C@@H]1CCCN1C(=O)[C@@H](NC(=O)[C@H](C)NC(=O)[C@H](C)NC(=O)[C@H](CCC(=O)O)NC(=O)[C@H](CCC(=O)O)NC(=O)[C@@H]1CCCN1C(=O)[C@H](CCCCNC(=O)CCCCCNC(=O)CC[C@H](NC(=O)CCCCCCCCCCCCCCCCC(=O)O)C(=O)O)NC(=O)[C@H](C)NC(=O)[C@@H]1CCCN1C(=O)[C@H](C)NC(=O)CC(C)C)[C@@H](C)O)C(=O)N[C@@H](CO)C(=O)N[C@@H](CC(C)C)C(=O)N[C@@H](CCCNC(=N)N)C(=O)N[C@@H](Cc1c[nH]cn1)C(=O)N[C@@H](Cc1ccc(O)cc1)C(=O)N[C@@H](Cc1ccc(O)cc1)C(=O)N[C@@H](CC(N)=O)C(=O)N[C@@H](Cc1c[nH]c2ccccc12)C(=O)N[C@@H](CC(C)C)C(=O)N[C@H](C(=O)N[C@@H](CCCNC(=N)N)C(=O)N[C@@H](CCC(N)=O)C(=O)N[C@@H](CCCNC(=N)N)C(=O)N[C@@H](Cc1ccc(O)cc1)C(N)=O)[C@@H](C)O [Compound 48, N{alpha-4}-(3-methylbutanoyl)-N{epsilon-7}-(6-[(4S)-4-carboxy-4-(17-carboxyheptadecanamido)butanamido]hexanoyl)-[4A,6A,7K,9E,11A,13T,18Q,22I,28Y,30W,31L]-hPYY(4-36)] | 1.54 nM | 0.0 mg/mL | 0.3 mg/mL |
| CC(C)CC(=O)N[C@@H](C)C(=O)N1CCC[C@H]1C(=O)N[C@@H](C)C(=O)N[C@@H](CCCCNC(=O)CCCCCNC(=O)CC[C@H](NC(=O)CCCCCCCCCCCCCCCCC(=O)O)C(=O)O)C(=O)N1CCC[C@H]1C(=O)N1CCC[C@H]1C(=O)N[C@@H](CCC(=O)O)C(=O)N[C@@H](CC(=O)O)C(=O)N[C@@H](C)C(=O)N[C@@H](CCC(=O)O)C(=O)N1CCC[C@H]1C(=O)N[C@@H](CCC(=O)O)C(=O)N[C@@H](CCC(=O)O)C(=O)N[C@@H](CC(C)C)C(=O)N[C@@H](CCC(N)=O)C(=O)N[C@@H](CCCNC(=N)N)C(=O)N[C@@H](Cc1ccc(O)cc1)C(=O)N[C@@H](Cc1ccc(O)cc1)C(=O)N[C@H](C(=O)N[C@@H](CO)C(=O)N[C@@H](CC(C)C)C(=O)N[C@@H](CCCNC(=N)N)C(=O)N[C@@H](Cc1c[nH]cn1)C(=O)N[C@@H](Cc1ccc(O)cc1)C(=O)N[C@@H](Cc1ccc(O)cc1)C(=O)N[C@@H](CC(N)=O)C(=O)N[C@@H](Cc1c[nH]c2ccccc12)C(=O)N[C@@H](CC(C)C)C(=O)N[C@H](C(=O)N[C@@H](CCCNC(=N)N)C(=O)N[C@@H](CCC(N)=O)C(=O)N[C@@H](CCCNC(=N)N)C(=O)N[C@@H](Cc1ccc(O)cc1)C(N)=O)[C@@H](C)O)C(C)C [Compound 165, N{alpha-4}-(3-methylbutanoyl)-N{epsilon-7}-(6-[(4S)-4-carboxy-4-(17-carboxyheptadecanamido)butanamido]hexanoyl)-[4A,6A,7K,9P,13E,18Q,22V,28Y,30W,31L]-hPYY(4-36)] | – | 8.8 mg/mL | 9.1 mg/mL |
| CC(C)CC(=O)N[C@@H](C)C(=O)N1CCC[C@H]1C(=O)N[C@@H](C)C(=O)N[C@@H](CCCCNC(=O)CCCCCNC(=O)CC[C@H](NC(=O)CCCCCCCCCCCCCCCCC(=O)O)C(=O)O)C(=O)N1CCC[C@H]1C(=O)N[C@@H](CCC(=O)O)C(=O)N[C@@H](CCC(=O)O)C(=O)N[C@@H](CC(=O)O)C(=O)N[C@@H](C)C(=O)N[C@@H](CO)C(=O)N1CCC[C@H]1C(=O)N[C@@H](CCC(=O)O)C(=O)N[C@@H](CCC(=O)O)C(=O)N[C@@H](CC(C)C)C(=O)N[C@@H](CCC(N)=O)C(=O)N[C@@H](CCCNC(=N)N)C(=O)N[C@@H](Cc1ccc(O)cc1)C(=O)N[C@@H](Cc1ccc(O)cc1)C(=O)N[C@H](C(=O)N[C@@H](CO)C(=O)N[C@@H](CC(C)C)C(=O)N[C@@H](CCCNC(=N)N)C(=O)N[C@@H](Cc1c[nH]cn1)C(=O)N[C@@H](Cc1ccc(O)cc1)C(=O)N[C@@H](Cc1ccc(O)cc1)C(=O)N[C@@H](CCC(N)=O)C(=O)N[C@@H](Cc1c[nH]c2ccccc12)C(=O)N[C@@H](CC(C)C)C(=O)N[C@H](C(=O)N[C@@H](CCCNC(=N)N)C(=O)N[C@@H](CCC(N)=O)C(=O)N[C@@H](CCCNC(=N)N)C(=O)N[C@@H](Cc1ccc(O)cc1)C(N)=O)[C@@H](C)O)C(C)C [Compound 78, N{alpha-4}-(3-methylbutanoyl)-N{epsilon-7}-(6-[(4S)-4-carboxy-4-(17-carboxyheptadecanamido)butanamido]hexanoyl)-[4A,6A,7K,9E,18Q,22V,28Y,29Q,30W,31L]-hPYY(4-36)] | – | 8.1 mg/mL | 7.6 mg/mL |
| CC(C)CC(=O)N[C@@H](C)C(=O)N1CCC[C@H]1C(=O)N[C@@H](CCC(=O)O)C(=O)N[C@@H](CCCCNC(=O)CCCCCNC(=O)CC[C@H](NC(=O)CCCCCCCCCCCCCCCCC(=O)O)C(=O)O)C(=O)N1CCC[C@H]1C(=O)N[C@@H](CCC(=O)O)C(=O)N[C@@H](CCC(=O)O)C(=O)N[C@@H](CC(=O)O)C(=O)N[C@@H](C)C(=O)N[C@H](C(=O)N1CCC[C@H]1C(=O)N[C@@H](CCC(=O)O)C(=O)N[C@@H](CCC(=O)O)C(=O)N[C@@H](CC(C)C)C(=O)N[C@@H](CCC(N)=O)C(=O)N[C@@H](CCCNC(=N)N)C(=O)N[C@@H](Cc1ccc(O)cc1)C(=O)N[C@@H](CCC(N)=O)C(=O)N[C@H](C(=O)N[C@@H](CO)C(=O)N[C@@H](CC(C)C)C(=O)N[C@@H](CCCNC(=N)N)C(=O)N[C@@H](Cc1c[nH]cn1)C(=O)N[C@@H](Cc1ccc(O)cc1)C(=O)N[C@@H](Cc1ccc(O)cc1)C(=O)N[C@@H](CC(N)=O)C(=O)N[C@@H](Cc1c[nH]c2ccccc12)C(=O)N[C@@H](CC(C)C)C(=O)N[C@H](C(=O)N[C@@H](CCCNC(=N)N)C(=O)N[C@@H](CCC(N)=O)C(=O)N[C@@H](CCCNC(=N)N)C(=O)N[C@@H](Cc1ccc(O)cc1)C(N)=O)[C@@H](C)O)C(C)C)[C@@H](C)O [Compound 115, N{alpha-4}-(3-methylbutanoyl)-N{epsilon-7}-(6-[(4S)-4-carboxy-4-(17-carboxyheptadecanamido)butanamido]hexanoyl)-[4A,7K,9E,13T,18Q,21Q,22V,28Y,30W,31L]-hPYY(4-36)] | – | 9.0 mg/mL | 8.5 mg/mL |
| CC[C@H](C)[C@H](NC(=O)[C@H](CCC(=O)O)NC(=O)[C@H](CCC(=O)O)NC(=O)[C@@H]1CCCN1C(=O)[C@H](CCC(=O)O)NC(=O)[C@H](C)NC(=O)[C@H](C)NC(=O)[C@H](C)NC(=O)[C@H](CCC(=O)O)NC(=O)[C@@H]1CCCN1C(=O)[C@H](CCCCNC(=O)CCCCCNC(=O)CC[C@H](NC(=O)CCCCCCCCCCCCCCCCC(=O)O)C(=O)O)NC(=O)[C@H](C)NC(=O)[C@@H]1CCCN1C(=O)[C@H](C)NC(=O)CC(C)C)C(=O)N[C@@H](CCC(N)=O)C(=O)N[C@@H](CCCNC(=N)N)C(=O)N[C@@H](Cc1ccc(O)cc1)C(=O)N[C@@H](Cc1ccc(O)cc1)C(=O)N[C@H](C(=O)N[C@@H](C)C(=O)N[C@@H](CC(C)C)C(=O)N[C@@H](CCCNC(=N)N)C(=O)N[C@@H](Cc1c[nH]cn1)C(=O)N[C@@H](Cc1ccc(O)cc1)C(=O)N[C@@H](Cc1ccc(O)cc1)C(=O)N[C@@H](CC(N)=O)C(=O)N[C@@H](Cc1c[nH]c2ccccc12)C(=O)N[C@@H](CC(C)C)C(=O)N[C@H](C(=O)N[C@@H](CCCNC(=N)N)C(=O)N[C@@H](CCC(N)=O)C(=O)N[C@@H](CCCNC(=N)N)C(=O)N[C@@H](Cc1ccc(O)cc1)C(N)=O)[C@@H](C)O)C(C)C [Compound 116, N{alpha-4}-(3-methylbutanoyl)-N{epsilon-7}-(6-[(4S)-4-carboxy-4-(17-carboxyheptadecanamido)butanamido]hexanoyl)-[4A,6A,7K,9E,10A,11A,13E,17I,18Q,22V,23A,28Y,30W,31L]-hPYY(4-36)] | – | 0.0 mg/mL | 0.0 mg/mL |
